{"source": "ChEMBL document CHEMBL1201862", "about": "“PubChem BioAssay data set” (2004)", "key": {"[1]": {"experiment": "HPDE-C7 pancreatic duct cell viability loss – fluorescence, HTS (AID 430)", "assay_type": "functional, cell-based", "conditions": "Homo sapiens"}, "[2]": {"experiment": "viability loss of HPDE-C7K cells – cell-based, fluorescence, HTS, primary screen (AID 431)", "assay_type": "functional", "conditions": "Homo sapiens"}, "[3]": {"target": "Ubiquitin carboxyl-terminal hydrolase BAP1 (Homo sapiens, UniProt Q92560)", "sequence (Q92560 whole entry)": "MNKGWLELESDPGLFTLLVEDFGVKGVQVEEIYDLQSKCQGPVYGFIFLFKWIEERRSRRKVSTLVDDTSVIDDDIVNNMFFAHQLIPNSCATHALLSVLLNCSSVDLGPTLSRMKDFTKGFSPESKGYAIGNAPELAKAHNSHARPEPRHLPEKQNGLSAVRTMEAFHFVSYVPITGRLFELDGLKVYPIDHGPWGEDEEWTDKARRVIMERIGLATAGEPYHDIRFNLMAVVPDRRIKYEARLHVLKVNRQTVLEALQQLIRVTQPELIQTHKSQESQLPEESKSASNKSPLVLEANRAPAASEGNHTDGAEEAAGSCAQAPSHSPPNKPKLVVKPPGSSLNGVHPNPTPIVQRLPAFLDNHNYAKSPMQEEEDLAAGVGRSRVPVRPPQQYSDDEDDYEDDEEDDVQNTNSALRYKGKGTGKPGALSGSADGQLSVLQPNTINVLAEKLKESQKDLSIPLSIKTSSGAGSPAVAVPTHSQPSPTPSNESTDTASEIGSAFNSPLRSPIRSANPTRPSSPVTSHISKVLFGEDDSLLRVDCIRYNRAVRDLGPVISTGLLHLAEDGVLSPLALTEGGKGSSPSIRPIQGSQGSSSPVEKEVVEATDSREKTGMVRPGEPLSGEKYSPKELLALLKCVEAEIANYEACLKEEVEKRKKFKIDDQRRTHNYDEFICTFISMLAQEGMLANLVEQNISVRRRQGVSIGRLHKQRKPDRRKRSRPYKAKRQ", "experiment": "inhibition of BAP1 ubiquitin hydrolase activity – biochemical, dose response (AID 714)", "assay_type": "functional"}, "[4]": {"experiment": "viability inhibitors of stage V gametocytes – luminescence, dose response (AID 1117278);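 also: gametocytes exposed to compound for 24 hours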", "assay_type": "functional, cell-based"}, "[5]": {"experiment": "viability loss in human Jurkat cells – cell-based, luminescence, cytotoxicity control for P. falciparum gametocyte viability project, dose response (AID 1117277);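 also: potency reflects loss of cellular ATP meaning fewer viable cells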", "assay_type": "functional"}, "cells": {"experiment": "cells", "assay_type": "functional, cell-based", "conditions": "INS-1E"}, "[6]": {"experiment": "IC50 of insulin release inhibition, rat insulinoma INS-1E line, 5 mM glucose, cell-based (AID 1117331)", "assay_type": "functional"}, "[7]": {"target": "T1, Tyrosine-protein phosphatase non-receptor type 7 (Homo sapiens, UniProt P35236)", "T1 sequence (P35236 whole entry)": "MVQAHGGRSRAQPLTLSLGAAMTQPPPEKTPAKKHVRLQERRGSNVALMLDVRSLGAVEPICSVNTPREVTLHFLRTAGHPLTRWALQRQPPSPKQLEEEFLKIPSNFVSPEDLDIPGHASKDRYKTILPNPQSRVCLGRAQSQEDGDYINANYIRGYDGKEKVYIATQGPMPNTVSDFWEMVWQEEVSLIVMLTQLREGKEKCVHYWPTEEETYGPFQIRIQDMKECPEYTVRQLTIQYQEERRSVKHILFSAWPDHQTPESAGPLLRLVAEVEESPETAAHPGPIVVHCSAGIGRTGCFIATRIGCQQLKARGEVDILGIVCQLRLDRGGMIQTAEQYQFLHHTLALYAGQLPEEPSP", "experiment": "HePTP tyrosine phosphatase activity blockers – biochemical, absorbance, leukemia target, primary screen (AID 521)", "assay_type": "functional"}, "[8]": {"experiment": "off-target signal loss in HeLa-CEM21 co-culture – HeLa F-luc CTL cells, cherry-picked, counter-screen for HIV-1 Env fusion inhibitor project, dose response (AID 652040);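 also: potency for signal decrease marking cytotoxic or nonspecific inhibition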", "assay_type": "functional, cell-based"}, "[9]": {"target": "Dual specificity protein phosphatase 6 (Rattus norvegicus, UniProt Q64346)", "sequence (Q64346 whole entry)": "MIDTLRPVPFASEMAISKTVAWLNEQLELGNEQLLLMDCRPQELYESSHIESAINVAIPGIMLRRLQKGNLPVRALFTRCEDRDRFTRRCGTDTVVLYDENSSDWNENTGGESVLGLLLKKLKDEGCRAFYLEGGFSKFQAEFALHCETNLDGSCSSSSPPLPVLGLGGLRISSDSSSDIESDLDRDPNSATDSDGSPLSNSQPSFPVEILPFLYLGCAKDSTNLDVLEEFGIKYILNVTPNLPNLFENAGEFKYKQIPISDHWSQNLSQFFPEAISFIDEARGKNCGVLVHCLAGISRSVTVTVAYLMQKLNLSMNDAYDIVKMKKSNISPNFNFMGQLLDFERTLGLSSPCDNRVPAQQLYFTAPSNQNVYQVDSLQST", "experiment": "inhibition of rat DUSP6 enzyme activity – biochemical, in vitro, primary screen (AID 425)"}, "Bcl-2-related protein A1 [10]": {"target": "T2, Bcl-2-related protein A1 (Mus musculus, UniProt Q07440)", "T2 sequence (Q07440 whole entry)": "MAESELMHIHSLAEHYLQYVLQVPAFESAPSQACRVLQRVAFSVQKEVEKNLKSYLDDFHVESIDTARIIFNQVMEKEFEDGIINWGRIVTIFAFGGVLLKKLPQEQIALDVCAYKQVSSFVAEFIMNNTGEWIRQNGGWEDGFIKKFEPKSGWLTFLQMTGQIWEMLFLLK", "experiment": "small-molecule antagonists of Bfl-1/BH3 interaction – biochemical, TR-FRET, mouse Bfl-1, confirmation (AID 621);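 also: TR-FRET binding of GST-Bfl-1 to FITC-labelled Bid peptide via terbium antibody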"}, "Bcl-2-related protein A1 [11]": {"target": "T2, Bcl-2-related protein A1", "experiment": "displacement of Bid BH3 peptide from Bfl-1 – biochemical, fluorescence polarization, FITC-Bid, mouse, primary screen (AID 432)"}, "[12]": {"experiment": "HIV-1 AD8 envelope cell-cell fusion blockers – cherry-pick, dose response (AID 652062);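 also: potency is for inhibitors of fusion seen as a drop in luminescence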", "assay_type": "functional, cell-based"}, "[13]": {"experiment": "blockers of HIV-1 envelope-mediated cell-cell fusion – cherry-pick, dose response (AID 652057)", "assay_type": "functional, cell-based"}, "[14]": {"experiment": "viability loss in CEM21 cells – cell-based, CellTiter-Glo luminescence, cherry-picked, cytotoxicity control for viral fusion inhibitor project, dose response (AID 652042);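 also: potency for signal decrease meaning cytotoxicity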", "assay_type": "functional"}, "[15]": {"experiment": "blockers of HIV-1 ZM109 envelope-driven cell-cell fusion – HeLa effector, CEM target cells, luciferase, cherry-pick, dose response (AID 652058)", "assay_type": "functional, cell-based"}, "[16]": {"target": "Metabotropic glutamate receptor 7 (Homo sapiens, UniProt Q14831)", "sequence (Q14831 whole entry)": "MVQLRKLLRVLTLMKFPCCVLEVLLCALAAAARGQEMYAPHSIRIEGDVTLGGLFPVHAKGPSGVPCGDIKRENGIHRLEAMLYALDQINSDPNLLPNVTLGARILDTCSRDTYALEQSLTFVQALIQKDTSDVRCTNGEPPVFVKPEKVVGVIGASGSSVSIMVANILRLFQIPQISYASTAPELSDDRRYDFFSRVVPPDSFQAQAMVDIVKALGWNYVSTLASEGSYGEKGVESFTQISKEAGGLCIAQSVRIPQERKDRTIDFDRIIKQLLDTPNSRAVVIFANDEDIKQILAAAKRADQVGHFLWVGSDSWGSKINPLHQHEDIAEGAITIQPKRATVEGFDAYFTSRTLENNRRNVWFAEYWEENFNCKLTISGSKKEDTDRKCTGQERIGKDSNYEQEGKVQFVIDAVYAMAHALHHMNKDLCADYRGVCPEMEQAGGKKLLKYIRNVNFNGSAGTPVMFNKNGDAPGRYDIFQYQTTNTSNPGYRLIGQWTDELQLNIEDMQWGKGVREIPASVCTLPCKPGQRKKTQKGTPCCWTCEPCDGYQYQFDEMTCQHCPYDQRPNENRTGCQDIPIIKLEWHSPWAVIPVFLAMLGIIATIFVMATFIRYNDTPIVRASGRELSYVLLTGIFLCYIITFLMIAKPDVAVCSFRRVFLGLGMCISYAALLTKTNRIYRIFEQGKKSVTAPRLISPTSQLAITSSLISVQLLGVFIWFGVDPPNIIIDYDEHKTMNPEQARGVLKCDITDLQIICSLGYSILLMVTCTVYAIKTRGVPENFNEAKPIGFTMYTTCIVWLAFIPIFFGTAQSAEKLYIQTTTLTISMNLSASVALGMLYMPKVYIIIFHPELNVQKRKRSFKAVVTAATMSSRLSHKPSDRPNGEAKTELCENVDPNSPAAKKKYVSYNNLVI", "experiment": "potentiation of glutamate EC20 at mGlu7 – cell-based, calcium mobilization, Galpha15, dose response (AID 743384)", "assay_type": "functional"}, "[17]": {"target": "G-protein coupled receptor 183 (Homo sapiens, UniProt P32249)", "sequence (P32249 whole entry)": "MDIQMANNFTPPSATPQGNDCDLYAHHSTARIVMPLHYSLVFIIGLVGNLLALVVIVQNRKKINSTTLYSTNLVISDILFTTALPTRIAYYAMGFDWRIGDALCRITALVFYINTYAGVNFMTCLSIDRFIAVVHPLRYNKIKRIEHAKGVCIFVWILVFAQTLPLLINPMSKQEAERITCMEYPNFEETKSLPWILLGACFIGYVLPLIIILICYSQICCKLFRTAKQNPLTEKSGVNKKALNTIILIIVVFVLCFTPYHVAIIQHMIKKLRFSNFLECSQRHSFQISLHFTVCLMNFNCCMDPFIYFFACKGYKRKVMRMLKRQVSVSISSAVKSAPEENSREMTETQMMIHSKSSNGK", "experiment": "SAR confirmation of small molecule antagonists of the EBI2 receptor via a luminescent beta-arrestin assa.", "assay_type": "functional"}}, "note": "Where a name gives a salt, the structure may show the parent alone. Calls of active or inactive are those of the source."}
{"smiles": "Cc1sc(NC(=O)CSc2nnc3scc(-c4ccccc4)n23)c(C#N)c1C", "values": [{"measurement": "EC50", "setting": "[1]", "value": "8.93 µM (active)"}, {"measurement": "EC50", "setting": "[2]", "value": "8.96 µM (active)"}, {"measurement": "IC50", "setting": "[3]", "value": "> 50 µM (not active)"}]}
{"smiles": "CN(C)S(=O)(=O)N1CCC(Oc2ccc(C(=O)NCc3cnn(C)c3)cc2)CC1", "values": [{"measurement": "IC50", "setting": "[4]", "value": "> 109 µM (inactive)"}, {"measurement": "IC50", "setting": "[5]", "value": "> 83.3 µM (inactive)"}]}
{"smiles": "CCN(CC)CCCN(c1ccccc1)C1Cc2ccccc2C1", "note": "[APRINDINE HYDROCHLORIDE]", "values": [{"measurement": "IC50", "setting": "cells", "value": "> 33.3 µM (inactive)"}, {"measurement": "IC50", "setting": "[6]", "value": "7.13 µM (inactive)"}]}
{"smiles": "CC(C)(C#N)Nc1ccccc1", "values": [{"measurement": "IC50", "setting": "[7]", "value": "> 100 µM (not active)"}]}
{"smiles": "Cc1ccc(-c2nn3c(C)nnc3s2)cc1NC(=O)c1ccc(-c2ccc(Cl)cc2Cl)o1", "values": [{"measurement": "AC50", "setting": "[8]", "value": "9.7 µM (active)"}, {"measurement": "IC50", "setting": "[9]", "value": "> 10 µM (not active)"}, {"measurement": "IC50", "setting": "Bcl-2-related protein A1 [10]", "value": "> 100 µM (not active)"}, {"measurement": "IC50", "setting": "Bcl-2-related protein A1 [11]", "value": "> 100 µM (not active)"}, {"measurement": "AC50", "setting": "[12]", "value": "5.1 µM (active)"}, {"measurement": "AC50", "setting": "[13]", "value": "6.5 µM (active)"}, {"measurement": "AC50", "setting": "[14]", "value": "6.8 µM (active)"}, {"measurement": "AC50", "setting": "[15]", "value": "4.6 µM (active)"}]}
{"smiles": "CCOc1ccc(-n2c(C)cc(C(=O)CSCc3cccc(C)c3)c2C)cc1", "values": [{"measurement": "EC50", "setting": "[16]", "value": "10 µM (active)"}]}
{"smiles": "CCN1CCN(C(=O)/C=C/c2ccc(Br)cc2)CC1", "values": [{"measurement": "IC50", "setting": "[17]", "value": "0.0158 µM (active)"}]}
